Test results from patent US20240261274A1, “TREATMENT OF MYC-DRIVEN CANCERS WITH GSPT1 DEGRADERS” (MONTE ROSA THERAPEUTICS, INC., priority 2021, published 2024).

Target: T1, Full length wild-type cereblon CRBN (Homo sapiens, UniProt Q96SW2)
T1 construct: Full length wild-type cereblon CRBN (80.0 nM, 10 μL) was incubated in assay buffer
Assay: Fluorescence polarization (FP) assay indicating cereblon binding
Settings: Table 3B; read-out: rFP IC50
Method: Compound activity was monitored in a fluorescence polarization (FP) homogeneous assay using 1-[5-({2-[2-(2-{[2-(2,6-dioxopiperidin-3-yl)-1,3-dioxo-2,3-dihydro-1H-isoindol-4-yl]oxy}acetamido)ethoxy]ethyl}carbamoyl)pentyl]-3,3-dimethyl-2-[(1E,3E)-5-[(2E)-1,3,3-trimethyl-5-sulfo-2,3-dihydro-1H-indol-2-ylidene]penta-1,3-dien-1-yl]-3H-indol-1-ium-5-sulfonate as a fluorescent probe. Unless otherwise stated, all reagents were purchased from Sigma Aldrich. Enzymatic reactions were conducted in Perkin-Elmer Black 384 well ProxiPlate Plus (catalogue no. 6008269) in 10 μL total volume. Full length wild-type cereblon CRBN (80.0 nM, 10 μL) was incubated in assay buffer containing 20 mM HEPES (pH 8.0), […], 0.5 mM TCEP and 0.05% Tween 20 in the presence or absence of compound (300 nL). Inhibitors were stored as 10 mM DMSO stocks in an inert environment (low humidity, dark, low oxygen, room temperature) using the Storage Pod System. Compounds and DMSO were dispensed using the Echo E5XX (Labcyte Inc. USA) to give concentrations from 300 to 0.937 or 3000 to 9.3 nM in a 12 data point curve. […] Following incubation at room temperature for 30 min, the assay was initiated by dispensing the probe to a final concentration of 5 nM (2.5 nL of a 20 μM stock) using the Echo E5XX. FP was measured after a period of 12 hours using a Pherastar plate reader (BMG Labtech, Germany) exciting at 590 nm and measuring the amount of parallel and perpendicular light at 675 nm. The FP signal was subsequently normalized to the no-compound control (i.e., DMSO). Analysis and IC50 values were derived using Dotmatics (Dotmatics UK) software.

T1 sequence (Q96SW2 whole entry): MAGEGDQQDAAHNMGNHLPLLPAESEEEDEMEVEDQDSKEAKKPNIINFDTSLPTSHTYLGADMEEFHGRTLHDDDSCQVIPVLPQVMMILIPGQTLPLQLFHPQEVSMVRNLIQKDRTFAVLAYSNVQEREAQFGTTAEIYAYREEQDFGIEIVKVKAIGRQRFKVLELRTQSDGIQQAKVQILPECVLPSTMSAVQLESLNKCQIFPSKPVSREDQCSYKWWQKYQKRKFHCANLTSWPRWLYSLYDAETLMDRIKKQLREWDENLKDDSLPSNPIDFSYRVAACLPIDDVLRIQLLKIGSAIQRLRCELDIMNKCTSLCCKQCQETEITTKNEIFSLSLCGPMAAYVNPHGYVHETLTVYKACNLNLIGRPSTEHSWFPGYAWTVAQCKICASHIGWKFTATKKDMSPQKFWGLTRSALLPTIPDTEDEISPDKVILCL

| SMILES | IC50 [nM] |
| --- | --- |
| CC(C)(C)c1cccc(NC(=O)OCc2cc(F)c3c(c2)C(=O)N(C2CCC(=O)NC2=O)C3)c1 (centres unmarked) [Compound 525] | > 1900 |
| O=C1CCC(N2Cc3c(F)cc(COC(=O)Nc4cc(Cl)cc(Cl)c4)cc3C2=O)C(=O)N1 (centres unmarked) [Compound 528] | > 1900 |
| O=C1CCC(N2Cc3c(F)cc(COC(=O)Nc4cc(-c5ccccc5)ccn4)cc3C2=O)C(=O)N1 (centres unmarked) [Compound 524] | > 1900 |
| CC1(c2ccc(NC(=O)OCc3cc(F)c4c(c3)C(=O)N(C3CCC(=O)NC3=O)C4)cc2)CC1 (centres unmarked) [Compound 513] | > 1900 |
| Cc1cc(C)cc(NC(=O)OCc2cc(F)c3c(c2)C(=O)N(C2CCC(=O)NC2=O)C3)c1 (centres unmarked) [Compound 531] | > 1900 |
| Cc1ccc(NC(=O)OCc2cc(C#N)c3c(c2)C(=O)N(C2CCC(=O)NC2=O)C3)cc1Cl (centres unmarked) [Compound 502] | > 1900 |
| O=C1CCC(N2Cc3c(F)cc(COC(=O)Nc4cc(F)cc(OC(F)(F)F)c4)cc3C2=O)C(=O)N1 (centres unmarked) [Compound 512] | > 1900 |
| O=C1CCC(N2Cc3c(F)cc(COC(=O)Nc4cccc(OC(F)(F)F)c4)cc3C2=O)C(=O)N1 (centres unmarked) [Compound 515] | > 1900 |
| O=C1CCC(N2Cc3c(F)cc(COC(=O)Nc4cc(F)cc(OC(F)F)c4)cc3C2=O)C(=O)N1 (centres unmarked) [Compound 506] | > 1900 |
| O=C1CCC(N2Cc3c(F)cc(COC(=O)Nc4cc(Cl)cc(OC(F)F)c4)cc3C2=O)C(=O)N1 (centres unmarked) [Compound 534] | > 1900 |
| Cc1ccc(NC(=O)OCc2ccc3c(c2F)C(=O)N(C2CCC(=O)NC2=O)C3)cc1Cl (centres unmarked) [Compound 571] | > 1900 |

Continued, values first:

| IC50 [nM] | SMILES |
| --- | --- |
| ≤ 600 | COc1cc(COC(=O)Nc2cc(-c3ccccc3)ccn2)cc2c1CN(C1CCC(=O)NC1=O)C2=O (centres unmarked) [Compound 556] |
| ≤ 600 | COc1cc(COC(=O)Nc2cnc(-c3ccccc3)c(C)c2)cc2c1CN(C1CCC(=O)NC1=O)C2=O (centres unmarked) [Compound 559] |
| ≤ 600 | COc1cc(COC(=O)Nc2ccc(C3(C)CC3)cc2)cc2c1CN(C1CCC(=O)NC1=O)C2=O (centres unmarked) [Compound 540] |
| ≤ 600 | O=C1CCC(N2Cc3c(F)cc(COC(=O)Nc4ccc(-c5ccccn5)cc4)cc3C2=O)C(=O)N1 (centres unmarked) [Compound 511] |
| ≤ 600 | COc1cc(COC(=O)Nc2ccc(-c3ccccc3C)nc2)cc2c1CN(C1CCC(=O)NC1=O)C2=O (centres unmarked) [Compound 560] |
| ≤ 600 | COc1cc(COC(=O)Nc2cccc(OC3CC3)c2)cc2c1CN(C1CCC(=O)NC1=O)C2=O (centres unmarked) [Compound 558] |
| ≤ 600 | COc1cc(COC(=O)Nc2ccc(C(C)(C)C)nc2)cc2c1CN(C1CCC(=O)NC1=O)C2=O (centres unmarked) [Compound 544] |
| > 1900 | Cc1ccc(NC(=O)OCc2cc(F)c3c(c2)C(=O)N(C2CCC(=O)NC2=O)C3)cc1Cl (centres unmarked) [Compound 503] |
| ≤ 600 | COc1cc(COC(=O)Nc2ccc(N3CCCCC3C)nc2)cc2c1CN(C1CCC(=O)NC1=O)C2=O (centres unmarked) [Compound 538] |
| > 1900 | Cc1ccc(NC(=O)OCc2cc(Br)c3c(c2)C(=O)N(C2CCC(=O)NC2=O)C3)cc1Cl (centres unmarked) [Compound 501] |
| ≤ 600 | Cc1ccccc1-c1ccc(NC(=O)OCc2cc(F)c3c(c2)C(=O)N(C2CCC(=O)NC2=O)C3)cn1 (centres unmarked) [Compound 519] |
| ≤ 600 | COc1cc(COC(=O)Nc2cccc(C(C)(C)C)c2)cc2c1CN(C1CCC(=O)NC1=O)C2=O (centres unmarked) [Compound 554] |
| ≤ 600 | COc1cc(COC(=O)Nc2cc(C)cc(C)c2)cc2c1CN(C1CCC(=O)NC1=O)C2=O (centres unmarked) [Compound 552] |
| > 1900 | O=C1CCC(N2Cc3c(F)cc(COC(=O)Nc4ccc(-c5ccccc5)nc4)cc3C2=O)C(=O)N1 (centres unmarked) [Compound 508] |
| > 1900 | Cc1ccc(NC(=O)OCc2cc(F)c3c(c2)C(=O)N(C2CCC(=O)NC2=O)C3)cc1OC(F)F (centres unmarked) [Compound 535] |
| ≤ 600 | COc1cc(COC(=O)Nc2cccc(OC(F)F)c2)cc2c1CN(C1CCC(=O)NC1=O)C2=O (centres unmarked) [Compound 553] |
| ≤ 600 | COc1cc(COC(=O)Nc2ccc3c(c2)OCC3(C)C)cc2c1CN(C1CCC(=O)NC1=O)C2=O (centres unmarked) [Compound 537] |
| > 1900 | Cc1ccc(NC(=O)OCc2cc(Cl)c3c(c2)C(=O)N(C2CCC(=O)NC2=O)C3)cc1Cl (centres unmarked) [Compound 504] |

Same assay, conditions: bound stated; read-out: IC50 value

| IC50 [nM] | SMILES |
| --- | --- |
| < 1100 | COc1ccccc1CNC(=O)OCc1ccc2c(c1)C(=O)N(C1CCC(=O)NC1=O)C2 (centres unmarked) [Compound 297] |
| < 1100 | CC1COc2cc(NC(=O)OCc3ccc4c(c3)C(=O)N(C3CCC(=O)NC3=O)C4)ccc21 (centres unmarked) [Compound 303] |

Same assay, conditions: bounds stated; read-out: IC50 value

| IC50 [nM] | SMILES |
| --- | --- |
| < 600 | O=C1CCC(N2Cc3ccc(CNC(=O)Nc4ccc(F)c(Cl)c4)cc3C2=O)C(=O)N1 (centres unmarked) [Compound 42] |
| < 600 | O=C1CCC(N2Cc3ccc(CNC(=O)NCC4CC4)cc3C2=O)C(=O)N1 (centres unmarked) [Compound 26] |
| < 600 | COc1ccccc1NC(=O)NCc1ccc2c(c1)C(=O)N(C1CCC(=O)NC1=O)C2 (centres unmarked) [Compound 7] |
| < 600 | Cc1ccccc1NC(=O)NCc1ccc2c(c1)C(=O)N(C1CCC(=O)NC1=O)C2 (centres unmarked) [Compound 37] |
| < 600 | O=C1CCC(N2Cc3ccc(CNC(=O)Nc4cccc(Cl)c4Cl)cc3C2=O)C(=O)N1 (centres unmarked) [Compound 50] |
| < 600 | O=C1CCC(N2Cc3ccc(CNC(=O)Nc4ccc(F)c(F)c4)cc3C2=O)C(=O)N1 (centres unmarked) [Compound 39] |
| < 600 | Cc1ccc(NC(=O)NCc2ccc3c(c2)C(=O)N(C2CCC(=O)NC2=O)C3)cc1 (centres unmarked) [Compound 21] |
| < 600 | Cc1cccc(NC(=O)NCc2ccc3c(c2)C(=O)N(C2CCC(=O)NC2=O)C3)c1 (centres unmarked) [Compound 43] |
| < 600 | O=C1CCC(N2Cc3ccc(CNC(=O)Nc4ccc(C(F)(F)F)cc4)cc3C2=O)C(=O)N1 (centres unmarked) [Compound 41] |
| < 600 | COc1cccc(CNC(=O)NCc2ccc3c(c2)C(=O)N(C2CCC(=O)NC2=O)C3)c1 (centres unmarked) [Compound 53] |
| < 600 | C[C@@H](NC(=O)NCc1ccc2c(c1)C(=O)N(C1CCC(=O)NC1=O)C2)c1ccccc1 (some centres unmarked) [Compound 54] |
| < 600 | CC(C)(C)c1ccc(NC(=O)NCc2ccc3c(c2)C(=O)N(C2CCC(=O)NC2=O)C3)cc1 (centres unmarked) [Compound 56] |
| < 600 | COc1ccc(C)cc1NC(=O)NCc1ccc2c(c1)C(=O)N(C1CCC(=O)NC1=O)C2 (centres unmarked) [Compound 17] |
| < 600 | COc1ccc(CNC(=O)NCc2ccc3c(c2)C(=O)N(C2CCC(=O)NC2=O)C3)cc1 (centres unmarked) [Compound 52] |
| < 600 | COc1ccc(NC(=O)NCc2ccc3c(c2)C(=O)N(C2CCC(=O)NC2=O)C3)c(C)c1 (centres unmarked) [Compound 23] |
| < 600 | CCc1ccccc1NC(=O)NCc1ccc2c(c1)C(=O)N(C1CCC(=O)NC1=O)C2 (centres unmarked) [Compound 36] |

| IC50 [nM] | SMILES |
| --- | --- |
| < 600 | CC(C)(C)c1ccccc1NC(=O)NCc1ccc2c(c1)C(=O)N(C1CCC(=O)NC1=O)C2 (centres unmarked) [Compound 11] |
| < 600 | O=C1CCC(N2Cc3ccc(CNC(=O)NCCc4ccccc4)cc3C2=O)C(=O)N1 (centres unmarked) [Compound 27] |
| < 600 | CCc1ccc(NC(=O)NCc2ccc3c(c2)C(=O)N(C2CCC(=O)NC2=O)C3)cc1 (centres unmarked) [Compound 18] |
| < 600 | Cc1ccc(F)cc1NC(=O)NCc1ccc2c(c1)C(=O)N(C1CCC(=O)NC1=O)C2 (centres unmarked) [Compound 62] |
| < 600 | O=C1CCC(N2Cc3ccc(CNC(=O)Nc4ccccc4C(F)(F)F)cc3C2=O)C(=O)N1 (centres unmarked) [Compound 49] |
| < 600 | Cc1cccc(NC(=O)NCc2ccc3c(c2)C(=O)N(C2CCC(=O)NC2=O)C3)c1C (centres unmarked) [Compound 44] |
| < 600 | O=C1CCC(N2Cc3ccc(CNC(=O)NC4CCCc5ccccc54)cc3C2=O)C(=O)N1 (centres unmarked) [Compound 40] |
| < 600 | Cc1c(Cl)cccc1NC(=O)NCc1ccc2c(c1)C(=O)N(C1CCC(=O)NC1=O)C2 (centres unmarked) [Compound 19] |
| < 600 | O=C1CCC(N2Cc3ccc(CNC(=O)Nc4ccc(Cl)cc4Cl)cc3C2=O)C(=O)N1 (centres unmarked) [Compound 45] |
| < 600 | CC(C)c1ccc(NC(=O)NCc2ccc3c(c2)C(=O)N(C2CCC(=O)NC2=O)C3)cc1 (centres unmarked) [Compound 57] |
| < 600 | CCOc1ccc(NC(=O)NCc2ccc3c(c2)C(=O)N(C2CCC(=O)NC2=O)C3)cc1 (centres unmarked) [Compound 16] |
| < 600 | COc1ccc(NC(=O)NCc2ccc3c(c2)C(=O)N(C2CCC(=O)NC2=O)C3)cc1 (centres unmarked) [Compound 5] |
| < 600 | O=C1CCC(N2Cc3ccc(CNC(=O)NCC4CCCCC4)cc3C2=O)C(=O)N1 (centres unmarked) [Compound 58] |
| < 600 | O=C1CCC(N2Cc3ccc(CNC(=O)Nc4ccccc4F)cc3C2=O)C(=O)N1 (centres unmarked) [Compound 48] |
| < 600 | O=C1CCC(N2Cc3ccc(CNC(=O)Nc4cc(Cl)cc(Cl)c4)cc3C2=O)C(=O)N1 (centres unmarked) [Compound 38] |
